Measured values as given in patent US8026211B2, “Methods and formulations for increasing intestinal function” (Technion Research & Development Foundation Ltd., priority 2004, dated 2011).

Test system: enterocytes
Experiment: Rat model of SBS: enterocyte apoptosis (TUNEL assay)
Assay type: in vivo
Details: SBS rats, oral insulin
Experimental: Animal treatment: Animals were obtained from the Rappaport Faculty of Medicine (Technion, Haifa, Israel). Male rats weighing 240-260 g were kept in individual stainless steel cages at constant temperature and humidity, and a 12-hour light-dark cycle was maintained. Rats were fasted 12 hours prior to the experiment with free access to water. Animals underwent one of two surgical procedures: bowel transection and re-anastomosis or 75% bowel resection and anastomosis. General anesthesia was induced with Pentobarbital (IP 40 mg/kg). Using sterile techniques, the abdomen was opened using a midline incision. […]
Group C—SBS-Insulin (SBS-INS, n=13) rats underwent bowel resection and were fed regular chow diet and water containing insulin (ACTRAPID insulin, NOVO NORDISK, Denmark) at concentration of 1 u/ml. Food and fluid intake of animals were monitored as well as weight for a period of 14 days following treatment after which the animals were sacrificed following intraperitoneal injection of pentobarbital (75 mg/kg).
Apoptosis of enterocytes was assessed by terminal […] nick-end labeling (TUNEL) immunohistochemical assay using the I.S. Cell Death Detection kit (Boehringer Mannheim GmbH, Mannheim, Germany). […] For each group, the number of stained cells was counted in at ten villi in areas without necrosis. […]

Substance: insulin
- apoptotic cells number in ileum (vs SBS-untreated): did not affect
- apoptotic index in jejunum (SBS-untreated 29±7, mean±SEM, p<0.05): 11±3 TUNEL positive cells/10 villi
